{
  "source": "patent USRE48335E1",
  "about": "“Polymyxin derivatives as antimicrobial compounds” (priority 2014, dated 2020)",
  "key": {"Acinetobacter baumannii": {"system": "Acinetobacter baumannii", "method_in_brief": "(§1)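 Lipopeptides, as trifluoroacetate salts, tested for MIC in CAMHB by CLSI broth microdilution, with polymyxin B (sulphate) as comparator.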"}, "Enterobacter cloacae": {"system": "Enterobacter cloacae", "method_in_brief": "as §1"}, "Klebsiella pneumoniae": {"system": "Klebsiella pneumoniae", "method_in_brief": "as §1"}, "Pseudomonas aeruginosa": {"system": "Pseudomonas aeruginosa", "method_in_brief": "as §1"}, "P. aeruginosa ATCC 27853": {"system": "P. aeruginosa ATCC 27853", "assay": "In vivo efficacy in mouse blood infection model (neutropenic Swiss mice)", "conditions": "compound, free base 4 mg/kg intravenously 2 h after inoculation, blood at 4 h", "protocol": "P. aeruginosa ATCC 27853, A. baumannii ATCC 19606 and K. pneumoniae FADDI-KP032 were subcultured on nutrient agar plates. One colony of each bacterial strain was dispersed in 10-mL CAMHB and incubated overnight. On day 2, an aliquot (0.2 mL) of each overnight culture suspension was dispersed in 20-mL CAMHB and incubated for 1.5-2.5 h for production of early log-phase growth bacterial culture. The bacteria in the early log-phase growth suspension were concentrated by centrifugation (3,220 g for 10 min) and re-suspended in sterile 0.9% saline for inoculation into mice. The bacterial cell concentration (colony forming unit [CFU]/mL) in saline was estimated by determining the optical density (OD) of the suspension at 600 nm, and confirmed by plating the suspension on nutrient agar plates. Swiss mice (22 to 28 g) were rendered neutropenic by injecting two doses of cyclophosphamide intraperitoneally, −4 day (150 mg/kg) and −1 day (100 mg/kg) prior to inoculation. Bloodstream infection was established by injecting intravenously 50 μL of early log-phase bacterial suspension (10^8-10^9 CFU/mL). The exact injection volume for each bacterial suspension was calculated based upon the OD value of the bacterial suspension and the desired inoculum for each isolate.\nSolutions for administration of colistin, polymyxin B or the compounds were prepared at a concentration of 1 mg (free base) per mL in sterile 0.9% saline. At 2 h after inoculation, a mouse in the treatment groups was injected intravenously with one of the above solutions at 4 μL/g body weight (BW) (i.e. free base 4 mg/kg BW), while the same volume of saline was injected into the control mice. At 0 h or at 4 h after the administration of antibacterial drug or saline (control), animals were euthanised by inhalation of overdose isoflurane. The skin on the chest and fore-paws of each animal was thoroughly cleansed with 70% ethanol and Betadine®. The blood was collected via cardiac puncture using a 1-mL syringe rinsed with heparin (5,000 IU/mL), diluted serially in sterile 0.9% saline and plated on nutrient agar plates using a spiral plater.\nThe agar plates were incubated at 37° C. overnight. The bacterial colonies on the plate were counted and CFU/mL of the blood was calculated. The log10 CFU/mL of blood in each mouse was calculated. The in vivo activity of the compounds against the bacteria was calculated as the difference of the log10 CFU/mL values between the treated mice and the control mice at 4 h (Δ log=log10 (treated)CFU/mL−log10 (control)CFU/mL).\nAny compound showing a decrease in bacterial loading (Δ log) of ≥2 at 4 h is considered to have good in vivo efficacy in this initial screening model."}},
  "note": "Positions of bridges follow the written chain, without caps; N, C: chain ends. Non-standard residues stand in square brackets, D forms with d. Residues, ends and D or L forms follow the SMILES beside them. *: point of attachment. X21 = O=C(c1ccc(C(F)(F)F)c(Cl)c1)*; X17 = Cc1cc(C(=O)*)cc(C(F)(F)F)c1; X16 = O=C(c1cc(F)c(F)c(F)c1)*; X13 = O=C(Cc1ccc(Cl)cc1Cl)*; Dab = NCC[C@H](N)C(=O)O; Abu = CC[C@H](N)C(=O)O; Dap = NC[C@H](N)C(=O)O",
  "data": [
    {"smiles": "CC[C@@H]1NC(=O)[C@@H](CC(C)C)NC(=O)[C@H](CCN)NC(=O)[C@@H](NC(=O)[C@H](CN)NC(=O)[C@@H](NC(=O)[C@H](CCN)NC(=O)Cc2ccc(Cl)cc2Cl)[C@@H](C)O)CCNC(=O)[C@H]([C@@H](C)O)NC(=O)[C@H](CCN)NC(=O)[C@H](CCN)NC1=O", "note": "[Compound 70] (X13-[Dab]T[Dap][Dab][Dab][dL][Abu][Dab][Dab]T; lactam 4-C)", "values": [
      {"measurement": "MIC", "setting": "Acinetobacter baumannii", "result": 0.5, "unit": "µg/mL"},
      {"measurement": "Minimum inhibitory concentration, Ab A ATCC 17978", "setting": "Acinetobacter baumannii", "result": 0.5, "unit": "µg/mL"},
      {"measurement": "Minimum inhibitory concentration, Ab ATCC 19606", "setting": "Acinetobacter baumannii", "result": 0.5, "unit": "µg/mL"},
      {"measurement": "Minimum inhibitory concentration, Ab FADDI-AB034", "setting": "Acinetobacter baumannii", "result": 1, "unit": "µg/mL"},
      {"measurement": "Minimum inhibitory concentration, Ec FADDI-EC001", "setting": "Enterobacter cloacae", "result": 0.5, "unit": "µg/mL"},
      {"measurement": "Minimum inhibitory concentration, Ec FADDI-EC003", "setting": "Enterobacter cloacae", "result": 0.25, "unit": "µg/mL"},
      {"measurement": "Minimum inhibitory concentration, Ec FADDI-EC006", "setting": "Enterobacter cloacae", "result": 0.5, "unit": "µg/mL"},
      {"measurement": "MIC", "setting": "Klebsiella pneumoniae", "result": 0.25, "unit": "µg/mL"},
      {"measurement": "MIC", "setting": "Pseudomonas aeruginosa", "result": 1, "unit": "µg/mL"},
      {"measurement": "Minimum inhibitory concentration, Pa ATCC 27853", "setting": "Pseudomonas aeruginosa", "result": 1, "unit": "µg/mL"},
      {"measurement": "Minimum inhibitory concentration, Pa FADDI-PA022", "setting": "Pseudomonas aeruginosa", "result": 1, "unit": "µg/mL"},
      {"measurement": "Minimum inhibitory concentration, Pa FADDI-PA025", "setting": "Pseudomonas aeruginosa", "result": 2, "unit": "µg/mL"},
      {"measurement": "Δ log (Treated-Control at 4 h)", "setting": "P. aeruginosa ATCC 27853", "result": "−3.11", "unit": "log10 CFU/mL"}
    ]},
    {"smiles": "CC[C@@H]1NC(=O)[C@@H](CC(C)C)NC(=O)[C@H](CCN)NC(=O)[C@@H](NC(=O)[C@H](CN)NC(=O)[C@@H](NC(=O)[C@H](CCN)NC(=O)c2cc(C)cc(C(F)(F)F)c2)[C@@H](C)O)CCNC(=O)[C@H]([C@@H](C)O)NC(=O)[C@H](CCN)NC(=O)[C@H](CCN)NC1=O", "note": "[Compound 120] (X17-[Dab]T[Dap][Dab][Dab][dL][Abu][Dab][Dab]T; lactam 4-C)", "values": [
      {"measurement": "MIC", "setting": "Acinetobacter baumannii", "result": 1, "unit": "µg/mL"},
      {"measurement": "Minimum inhibitory concentration, Ab A ATCC 17978", "setting": "Acinetobacter baumannii", "result": 0.5, "unit": "µg/mL"},
      {"measurement": "Minimum inhibitory concentration, Ab ATCC 19606", "setting": "Acinetobacter baumannii", "result": 1, "unit": "µg/mL"},
      {"measurement": "Minimum inhibitory concentration, Ab FADDI-AB034", "setting": "Acinetobacter baumannii", "result": 0.5, "unit": "µg/mL"},
      {"measurement": "Minimum inhibitory concentration, Ec FADDI-EC001", "setting": "Enterobacter cloacae", "result": 0.25, "unit": "µg/mL"},
      {"measurement": "Minimum inhibitory concentration, Ec FADDI-EC003", "setting": "Enterobacter cloacae", "result": 0.25, "unit": "µg/mL"},
      {"measurement": "Minimum inhibitory concentration, Ec FADDI-EC006", "setting": "Enterobacter cloacae", "result": 0.25, "unit": "µg/mL"},
      {"measurement": "MIC", "setting": "Klebsiella pneumoniae", "result": 0.5, "unit": "µg/mL"},
      {"measurement": "MIC", "setting": "Pseudomonas aeruginosa", "result": 1, "unit": "µg/mL"},
      {"measurement": "Minimum inhibitory concentration, Pa ATCC 27853", "setting": "Pseudomonas aeruginosa", "result": 1, "unit": "µg/mL"},
      {"measurement": "Minimum inhibitory concentration, Pa FADDI-PA022", "setting": "Pseudomonas aeruginosa", "result": 1, "unit": "µg/mL"},
      {"measurement": "Minimum inhibitory concentration, Pa FADDI-PA025", "setting": "Pseudomonas aeruginosa", "result": 2, "unit": "µg/mL"},
      {"measurement": "Δ log (Treated-Control at 4 h)", "setting": "P. aeruginosa ATCC 27853", "result": "−3.20", "unit": "log10 CFU/mL"}
    ]},
    {"smiles": "CC[C@@H]1NC(=O)[C@@H](CC(C)C)NC(=O)[C@H](CCN)NC(=O)[C@@H](NC(=O)[C@H](CN)NC(=O)[C@@H](NC(=O)[C@H](CCN)NC(=O)c2cc(F)c(F)c(F)c2)[C@@H](C)O)CCNC(=O)[C@H]([C@@H](C)O)NC(=O)[C@H](CCN)NC(=O)[C@H](CCN)NC1=O", "note": "[Compound 133] (X16-[Dab]T[Dap][Dab][Dab][dL][Abu][Dab][Dab]T; lactam 4-C; N-terminus assumed)", "values": [
      {"measurement": "MIC", "setting": "Acinetobacter baumannii", "result": 2, "unit": "µg/mL"},
      {"measurement": "Minimum inhibitory concentration, Ab A ATCC 17978", "setting": "Acinetobacter baumannii", "result": 0.5, "unit": "µg/mL"},
      {"measurement": "Minimum inhibitory concentration, Ab ATCC 19606", "setting": "Acinetobacter baumannii", "result": 2, "unit": "µg/mL"},
      {"measurement": "Minimum inhibitory concentration, Ab FADDI-AB034", "setting": "Acinetobacter baumannii", "result": 0.25, "unit": "µg/mL"},
      {"measurement": "Minimum inhibitory concentration, Ec FADDI-EC001", "setting": "Enterobacter cloacae", "result": 0.5, "unit": "µg/mL"},
      {"measurement": "Minimum inhibitory concentration, Ec FADDI-EC003", "setting": "Enterobacter cloacae", "result": 0.25, "unit": "µg/mL"},
      {"measurement": "Minimum inhibitory concentration, Ec FADDI-EC006", "setting": "Enterobacter cloacae", "result": 0.25, "unit": "µg/mL"},
      {"measurement": "MIC", "setting": "Klebsiella pneumoniae", "result": 0.25, "unit": "µg/mL"},
      {"measurement": "MIC", "setting": "Pseudomonas aeruginosa", "result": 0.5, "unit": "µg/mL"},
      {"measurement": "Minimum inhibitory concentration, Pa ATCC 27853", "setting": "Pseudomonas aeruginosa", "result": 0.5, "unit": "µg/mL"},
      {"measurement": "Minimum inhibitory concentration, Pa FADDI-PA022", "setting": "Pseudomonas aeruginosa", "result": 0.5, "unit": "µg/mL"},
      {"measurement": "Minimum inhibitory concentration, Pa FADDI-PA025", "setting": "Pseudomonas aeruginosa", "result": 2, "unit": "µg/mL"},
      {"measurement": "Δ log (Treated-Control at 4 h)", "setting": "P. aeruginosa ATCC 27853", "result": "−3.23", "unit": "log10 CFU/mL"}
    ]},
    {"smiles": "CC[C@@H]1NC(=O)[C@@H](CC(C)C)NC(=O)[C@H](CCN)NC(=O)[C@@H](NC(=O)[C@H](CN)NC(=O)[C@@H](NC(=O)[C@H](CCN)NC(=O)c2ccc(C(F)(F)F)c(Cl)c2)[C@@H](C)O)CCNC(=O)[C@H]([C@@H](C)O)NC(=O)[C@H](CCN)NC(=O)[C@H](CCN)NC1=O", "note": "[Compound 115] (X21-[Dab]T[Dap][Dab][Dab][dL][Abu][Dab][Dab]T; lactam 4-C)", "values": [
      {"measurement": "MIC", "setting": "Acinetobacter baumannii", "result": 0.5, "unit": "µg/mL"},
      {"measurement": "Minimum inhibitory concentration, Ab A ATCC 17978", "setting": "Acinetobacter baumannii", "result": 0.5, "unit": "µg/mL"},
      {"measurement": "Minimum inhibitory concentration, Ab ATCC 19606", "setting": "Acinetobacter baumannii", "result": 0.5, "unit": "µg/mL"},
      {"measurement": "Minimum inhibitory concentration, Ab FADDI-AB034", "setting": "Acinetobacter baumannii", "result": 0.5, "unit": "µg/mL"},
      {"measurement": "Minimum inhibitory concentration, Ec FADDI-EC001", "setting": "Enterobacter cloacae", "result": 0.25, "unit": "µg/mL"},
      {"measurement": "Minimum inhibitory concentration, Ec FADDI-EC003", "setting": "Enterobacter cloacae", "result": 0.25, "unit": "µg/mL"},
      {"measurement": "Minimum inhibitory concentration, Ec FADDI-EC006", "setting": "Enterobacter cloacae", "result": 0.25, "unit": "µg/mL"},
      {"measurement": "MIC", "setting": "Klebsiella pneumoniae", "result": 0.125, "unit": "µg/mL"},
      {"measurement": "MIC", "setting": "Pseudomonas aeruginosa", "result": 1, "unit": "µg/mL"},
      {"measurement": "Minimum inhibitory concentration, Pa ATCC 27853", "setting": "Pseudomonas aeruginosa", "result": 1, "unit": "µg/mL"},
      {"measurement": "Minimum inhibitory concentration, Pa FADDI-PA022", "setting": "Pseudomonas aeruginosa", "result": 0.5, "unit": "µg/mL"},
      {"measurement": "Minimum inhibitory concentration, Pa FADDI-PA025", "setting": "Pseudomonas aeruginosa", "result": 1, "unit": "µg/mL"},
      {"measurement": "Δ log (Treated-Control at 4 h)", "setting": "P. aeruginosa ATCC 27853", "result": "−2.71", "unit": "log10 CFU/mL"}
    ]}
  ]
}
